Tested on: ATDC5 cells
Test: IGF1 stimulated MMP-9/MMP-13 expression in chondrocytes (quantitative real-time PCR)
Assay type: cell-based
Conditions: preliminary dose finding experiments, free inhibitor, data not shown
Protocol: Here, we investigated the therapeutic role of the IGF1R inhibitor (NVP-AEW541) in PTOA development. NVP-AEW541 (IGF1Ri) was incorporated into the polyethylene glycol dimethacrylate (PEG-DMA) hydrogel carriers (microrods) for prolonged local delivery in the joint space following ACL rupture (ACLR). […] The left knee served as the control (CON). 1 day after the TCO, vehicle (Veh) or microrods loaded with inhibitor (IGF1Ri/rod) was injected into the injured knee. […] As determined by μCT, compared with the CON knee, ACLR decreased BV/TV (24%) in the subchondral bone, while the IGF1Ri/rod treatment (Tx) prevented the bone loss. […] As indicated by IHC, ACLR increased the number of PCNA positive articular chondrocytes and MMP-13 production in the Veh-treated injured knee, but these effects were blunted in the IGF1Ri-treated injured knee. Moreover, ACLR increased the production of VEGF, resulting in vessel formation within articular cartilage (as indicated by CD31) in the Veh -treated injured knee, but these effects were blocked in the IGF1Ri-treated injured knee.
FIG. 7. […] The mRNA levels of MMP-9 (upper panel) and MMP-13 (lower panel) were determined by quantitative real-time PCR. […] Results are expressed as percentage of L-19 (house keeper gene) expression (mean±SD) of triplicate determinations. *: p<0.05 IGF-1 treated cultures vs. vehicle treated cultures.

Compound: Cl.Cl.Nc1ncnc2c1c(-c1cccc(OCc3ccccc3)c1)cn2[C@H]1C[C@@H](CN2CCC2)C1 [NVP-AEW541, 7-[cis-3-(1-azetidinylmethyl)cyclobutyl]-5-[3-(phenylmethoxy)phenyl]-7H-pyrrolo[2,3-d]pyrimidin-4-amine, dihydrochloride]
- blocking IGF1 stimulated MMP9 and MMP13 expression: highly effective

— patent publication US20210369714A1, “Prevention and Treatment of Osteoarthritis by Inhibition of Insulin Growth Factor-1 Signaling” (The Regents of the University of California, priority 2018, published 2021)
